According to ChEMBL document CHEMBL6114986, “Vitexin alleviates lipid metabolism disorders and hepatic injury in obese mice through the PI3K/AKT/mTOR/SREBP-1c pathway” (Eur J Med Chem, 2025):
The source made the active and inactive calls. No cut-off for these calls is given here.

Key:
Type in all cases: functional, organism-based
Mus musculus [1] = test: Anti-obesity activity in C57BL/6 mouse assessed as initial weight at high dose administered intragastrically once daily for 5 weeks (reference value: 19.06 +/- 0.94 g); details: route ig
Mus musculus [2] = test: Anti-obesity activity in C57BL/6 mouse assessed as final weight at high dose administered intragastrically once daily for 5 weeks (reference value: 28.86 +/- 0.86 g); details: route ig
Mus musculus [3] = test: Anti-obesity activity in C57BL/6 mouse assessed as weight difference at high dose administered intragastrically once daily for 5 weeks (reference value: 9.80 +/- 0.97 g); details: route ig
Mus musculus [4] = test: Anti-obesity activity in C57BL/6 mouse assessed as liver weight at high dose administered intragastrically once daily for 5 weeks (reference value: 1.15 +/- 0.04 g); details: route ig
Mus musculus [5] = test: Anti-obesity activity in C57BL/6 mouse assessed as liver index at high dose administered intragastrically once daily for 5 weeks (reference value: 3.97 +/- 0.09 %); details: route ig
Mus musculus [6] = test: Anti-obesity activity in C57BL/6 mouse assessed as initial weight at low dose administered intragastrically once daily for 5 weeks (reference value: 19.06 +/- 0.94 g); details: route ig
Mus musculus [7] = test: Anti-obesity activity in C57BL/6 mouse assessed as final weight at low dose administered intragastrically once daily for 5 weeks (reference value: 28.86 +/- 0.86 g); details: route ig
Mus musculus [8] = test: Anti-obesity activity in C57BL/6 mouse assessed as weight difference at low dose administered intragastrically once daily for 5 weeks (reference value: 9.80 +/- 0.97 g); details: route ig
Mus musculus [9] = test: Anti-obesity activity in C57BL/6 mouse assessed as liver weight at low dose administered intragastrically once daily for 5 weeks (reference value: 1.15 +/- 0.04 g); details: route ig
Mus musculus [10] = test: Anti-obesity activity in C57BL/6 mouse assessed as liver index at low dose administered intragastrically once daily for 5 weeks (reference value: 3.97 +/- 0.09 %); details: route ig
Mus musculus [11] = test: Anti-obesity activity in C57BL/6 mouse assessed as reduction in body weight at high dose administered intragastrically once daily for 5 weeks relative to control; parameters: scale not given: the % may be the effect or the level left; details: route ig
Mus musculus [12] = test: Anti-obesity activity in C57BL/6 mouse assessed as liver TNF-alpha level at high dose administered intragastrically once daily for 5 weeks (reference value: 5940.65 +/- 261.75 pg/g); details: route ig
Mus musculus [13] = test: Anti-obesity activity in C57BL/6 mouse assessed as liver IL-6 level at high dose administered intragastrically once daily for 5 weeks (reference value: 1042.25 +/- 21.85 pg/g); details: route ig
Mus musculus [14] = test: Anti-obesity activity in C57BL/6 mouse assessed as serum IL-18 level at high dose administered intragastrically once daily for 5 weeks (reference value: 149.1 +/- 2.066 pg/ml)
Mus musculus [15] = test: Anti-obesity activity in C57BL/6 mouse assessed as serum TC level at high dose administered intragastrically once daily for 5 weeks (reference value: 11.12 +/- 0.32 mmol/g)
Mus musculus [16] = test: Anti-obesity activity in C57BL/6 mouse assessed as serum TG level at high dose administered intragastrically once daily for 5 weeks (reference value: 13.13 +/- 1.10 mmol/g)
Mus musculus [17] = test: Anti-obesity activity in C57BL/6 mouse assessed as liver TNF-alpha level at low dose administered intragastrically once daily for 5 weeks (reference value: 5940.65 +/- 261.75 pg/g)
Mus musculus [18] = test: Anti-obesity activity in C57BL/6 mouse assessed as liver IL-6 level at low dose administered intragastrically once daily for 5 weeks (reference value: 1042.25 +/- 21.85 pg/g)
Mus musculus [19] = test: Anti-obesity activity in C57BL/6 mouse assessed as serum IL-18 level at low dose administered intragastrically once daily for 5 weeks (reference value: 149.1 +/- 2.066 pg/ml)
Mus musculus [20] = test: Anti-obesity activity in C57BL/6 mouse assessed as serum TC level at low dose administered intragastrically once daily for 5 weeks (reference value: 11.12 +/- 0.32 mmol/g)
Mus musculus [21] = test: Anti-obesity activity in C57BL/6 mouse assessed as serum TG level at low dose administered intragastrically once daily for 5 weeks (reference value: 13.13 +/- 1.10 mmol/g)
Mus musculus [22] = test: Anti-obesity activity in C57BL/6 mouse assessed as reduction in serum TC level at high dose administered intragastrically once daily for 5 weeks relative to control; parameters: scale not given: the % may be the effect or the level left; details: route ig
Mus musculus [23] = test: Anti-obesity activity in C57BL/6 mouse assessed as reduction in serum TG level at high dose administered intragastrically once daily for 5 weeks relative to control; parameters: scale not given: the % may be the effect or the level left; details: route ig
Mus musculus [24] = test: Anti-obesity activity in C57BL/6 mouse assessed as reduction in liver TNF-alpha level at high dose administered intragastrically once daily for 5 weeks relative to control; parameters: scale not given: the % may be the effect or the level left; details: route ig
Mus musculus [25] = test: Anti-obesity activity in C57BL/6 mouse assessed as reduction in liver IL-6 level at high dose administered intragastrically once daily for 5 weeks relative to control; parameters: scale not given: the % may be the effect or the level left; details: route ig
Mus musculus [26] = test: Anti-obesity activity in C57BL/6 mouse assessed as reduction in serum IL-18 level at high dose administered intragastrically once daily for 5 weeks relative to control; parameters: scale not given: the % may be the effect or the level left; details: route ig
Mus musculus [27] = test: Anti-obesity activity in C57BL/6 mouse assessed as reduction in lipid droplets in liver at low to high dose administered intragastrically once daily for 5 weeks by H and E staining based analysis; details: route ig
Mus musculus [28] = test: Anti-obesity activity in C57BL/6 mouse assessed as reduction in inflammatory cell infiltration in liver at low to high dose administered intragastrically once daily for 5 weeks by H and E staining based analysis; details: route ig
Mus musculus [29] = test: Anti-obesity activity in C57BL/6 mouse assessed as reduction in adipocyte volume at low to high dose administered intragastrically once daily for 5 weeks by CT analysis; details: route ig
Mus musculus [30] = test: Anti-obesity activity in C57BL/6 mouse assessed as reduction in subabdominal fat thickness at low to high dose administered intragastrically once daily for 5 weeks by CT analysis; details: route ig
Mus musculus [31] = test: Anti-obesity activity in C57BL/6 mouse assessed as decrease in ratio of p-PI3K/PI3K levels in liver at low to high dose administered intragastrically once daily for 5 weeks by immunoblot analysis; details: route ig
Mus musculus [32] = test: Anti-obesity activity in C57BL/6 mouse assessed as decrease in ratio of p-AKT/AKT levels in liver at low to high dose administered intragastrically once daily for 5 weeks by immunoblot analysis; details: route ig
Mus musculus [33] = test: Anti-obesity activity in C57BL/6 mouse assessed as decrease in ratio of p-mTOR/mTOR levels in liver at low to high dose administered intragastrically once daily for 5 weeks by immunoblot analysis; details: route ig
Mus musculus [34] = test: Anti-obesity activity in C57BL/6 mouse assessed as decrease in […] level in liver at low to high dose administered intragastrically once daily for 5 weeks by immunoblot analysis; details: route ig
Mus musculus [35] = test: Anti-obesity activity in C57BL/6 mouse assessed as decrease in ratio of p-IkappaBalpha/IkappaBalpha levels in liver at low to high dose administered intragastrically once daily for 5 weeks by immunoblot analysis; details: route ig
Mus musculus [36] = test: Anti-obesity activity in C57BL/6 mouse assessed as decrease in ratio of p-NFkappaB/NFkappaB levels in liver at low to high dose administered intragastrically once daily for 5 weeks by immunoblot analysis; details: route ig
Mus musculus [37] = test: Anti-obesity activity in C57BL/6 mouse assessed as decrease in IL-1beta level in liver at low to high dose administered intragastrically once daily for 5 weeks by immunoblot analysis; details: route ig

SMILES: O=c1cc(-c2ccc(O)cc2)oc2c([C@@H]3O[C@H](CO)[C@@H](O)[C@H](O)[C@H]3O)c(O)cc(O)c12
- Activity (Mus musculus [1]): 20.8 g
- Activity (Mus musculus [2]): 24.9 g
- Activity (Mus musculus [3]): 4.07 g
- Activity (Mus musculus [4]): 0.8 g
- Activity (Mus musculus [5]): 3.23 g
- Activity (Mus musculus [6]): 21 g
- Activity (Mus musculus [7]): 26.7 g
- Activity (Mus musculus [8]): 5.76 g
- Activity (Mus musculus [9]): 1.06 g
- Activity (Mus musculus [10]): 3.6%
- Activity (Mus musculus [11]): 13.8%
- Activity (Mus musculus [12]): 4110 pg/g
- Activity (Mus musculus [13]): 806 pg/g
- Activity (Mus musculus [14]): 108 pg/mL
- Activity (Mus musculus [15]): 7.81 mmol/g
- Activity (Mus musculus [16]): 8.23 mmol/g
- Activity (Mus musculus [17]): 5140 pg/g
- Activity (Mus musculus [18]): 829 pg/g
- Activity (Mus musculus [19]): 125 pg/mL
- Activity (Mus musculus [20]): 8.44 mmol/g
- Activity (Mus musculus [21]): 8.71 mmol/g
- Activity (Mus musculus [22]): 29.8%
- Activity (Mus musculus [23]): 37.3%
- Activity (Mus musculus [24]): 30.8%
- Activity (Mus musculus [25]): 22.7%
- Activity (Mus musculus [26]): 27.6%
- Activity (Mus musculus [27]): Active
- Activity (Mus musculus [28]): Active
- Activity (Mus musculus [29]): Active
- Activity (Mus musculus [30]): Active
- Activity (Mus musculus [31]): Active
- Activity (Mus musculus [32]): Active
- Activity (Mus musculus [33]): Active
- Activity (Mus musculus [34]): Active
- Activity (Mus musculus [35]): Active
- Activity (Mus musculus [36]): Active
- Activity (Mus musculus [37]): Active
